In brackets after ≈: the same amount, converted by molar mass. Where a name gives a salt, the structure may show the parent alone. Read-outs that look alike come from different tables or passages of the source.
What was measured:
[1] = test system: influenza A/New Caledonia/20/99 (H1N1) viruses; assay: microbe, parasite or virus in culture; assay type: cell-based
[2] = test system: hepatisis C viruses (HCV) strain JFH-1; assay: Antiviral activity towards HCV in infected Huh7 cells (core-antigen ELISA); assay type: cell-based, HCV strain JFH-1 in human hepatoma (Huh7) cells; conditions: Hepatitis C virus, Huh-7; HCV strain JFH-1, Huh7 cells
Procedure: Determination of antiviral activity of the compounds of the general formula 1 towards hepatisis C viruses. Determination of antiviral activity of the compounds of the general formula 1 towards hepatisis C viruses (HCV) strain JFH-1 in cell culture of human hepatoma (Huh7) infected with HCV.
Cells Huh7 were embedded in 96-well plates (7.5×10^3 cells in every well in 50 μl of nutrient solution). 5×-concentrated solutions of the tested compounds in DMEM medium {DMEM) 1×; the source: Cellgro; Catalogue: 10-013-CV} were prepared just before the usage. In total, four serial fivefold dilutions with concentration ranging from 250 μM to 2 μM were prepared. In 4 hours after cell embedding serial dilutions of the compounds were added to the cells (50 mkl per one well). Each dilution of the examined compound was tested for two identical wells. The final DMSO concentration amounted up to 0.5%. Then, the cells were incubated for 3 hours at 37° C./5% CO2. After the incubation virus (300 tissue culture infective doses in 30 μl per one well) was added to the cells. […]. Then the cells were incubated for 3 hours at 37° C./5% CO2. The cells were fixed by addition acetone/methanol (1:1) mixture in amount of 250 gμl/well. In one minute the cells were washed with Phosphate Buffered Saline (PBS) three times. After that the cells were quenched by addition of 10% solution of fetal calf serum in PBS (150 μl/well) and kept for one hour at room temperature. Then the cells were incubated with mouse monoclonal antibody (100 μl/well) to cor-antigen HCV, clone C7-50 (Source: Affinity BioReagents; Catalogue: MA1-080) (working dilution—1:500 in 10% solution of fetal calf serum in PBS) for two hours at 37° C. The cells were washed 6 times with PBS/0.05% Tween 20 solution and incubated for one hour with peroxidase conjugated goat anti-mouse immunoglobulin (100 μl/well) (working dilution—1:2500 in 10% solution of fetal calf serum in PBS). The cells were washed 6 times with PBS/0.05% Tween 20 solution, then with PBS solution, and 100 μl/well of the substrate (consisting of 1 tablet of oPD, 12 ml of citrate/phosphate buffer and 5 μl of 30% H2O2) were added. The plates were kept for 30 min in darkness at room temperature. The reaction was stopped by addition of 2N […] (100 μl/well), optical density (at 490 nm) was measured with the help of multichannel spectrophotometer Victor3 V 1420 (Perkin Elmer). IC50 values for every tested compound were calculated using XLfit 4 programm.

cellular line MDCK = conditions: cited from earlier work
influenza virus = conditions: cellular line MDCK, cited from earlier work
[3] = test system: some other cellular lines; conditions: cited from earlier work
[4] = influenza A/New Caledonia/20/99 (H1N1), MDCK cells, ELISA, read-out: IC50

SMILES | IC50 [1, 4] [µg/mL] | IC50 [2] [µM] | other results
COC(=O)Cc1c(C)[nH]c2cc(C(F)(F)F)c(OC)cc12 [1.4(1), methyl 2-(2-methyl-5-methoxy-6-(trifluoromethyl)-1H-indol-3-yl)acetate] | > 15 | 1.7 | 
COC(=O)Cc1c(C)n(C)c2cc(C(F)(F)F)c(OC)cc12 [1g(4), methyl 2-(1,2-dimethyl-5-methoxy-6-(trifluoromethyl)-1H-indol-3-yl)acetate] |  | 2.4 | 
Cc1c(CC(=O)O)c2cc(O)c(F)cc2n1C [1u(6), 2-(5-hydroxy-1,2-dimethyl-6-fluoro-1H-indol-3-yl)acetic acid] | > 15 |  | 
COC(=O)Cc1c(C)[nH]c2cc(F)c(OC)cc12 [1.2(1), methyl 2-(2-methyl-5-methoxy-6-fluoro-1H-indol-3-yl)acetate] |  | 13 | 
COC(=O)C(CCN(C)C)c1c(C)n(C)c2cc(C(F)(F)F)c(OC)cc12 (centres unmarked) [1p(2)•HCl, methyl 2-(1,2-dimethyl-5-methoxy-6-(trifluoromethyl)-1H-indol-3-yl)-4-dimethylaminobutyrate] |  |  | IC50 ([1]; H1N1, MDCK): 12 µg/mL
COc1ccc2c(c1F)c(CC(=O)O)c(CN(C)C)n2C [1i(13), 2-(2-(dimethylamino)methyl-1-methyl-5-methoxy-4-fluoro-1H-indol-3-yl)acetic acid] | 12 (≈ 40.8 µM) |  | 
COC(=O)Cc1c(C)[nH]c2ccc(OC)c(F)c12 [1.1(1), methyl 2-(2-methyl-5-methoxy-4-fluoro-1H-indol-3-yl)acetate] |  | 38 | 
COC(=O)Cc1c(C)n(C(=O)c2ccc(Cl)cc2)c2ccc(OC)c(F)c12 [1e(1), methyl 2-[2-methyl-5-methoxy-4-fluoro-1-(4-chlorobenzoyl)-1H-indol-3-yl]acetate] |  | 39 | 
CCOC(=O)c1c(CSc2ccccc2)n(C)c2cc(Br)c(O)c(CN(C)C)c12.Cl [Arbidol, ethyl 6-bromo-4-[(dimethylamino)methyl]-5-hydroxy-1-methyl-2-(phenylthiomethyl)-1H-indole-3-carboxylate hydrochloride] |  |  | TC50 (cellular line MDCK): 62.5 µg/mL; selectivity index (SI50) (influenza virus; for influenza virus): 2.69; IC50 (influenza virus; influenza virus): 23.2 mkg/ml; CC50 [3]: 15 to 25 µg/mL
CN(C)Cc1c(CC(=O)O)c2cc(O)c(-c3cccnc3)cc2n1C [1t(5), 2-(5-hydroxy-2-(dimethylamino)methyl-1-methyl-6-(pyridin-3-yl)-1H-indol-3-yl)acetic acid] | > 15 |  | 
COC(=O)Cc1c(C)n(C)c2cc(F)c(OC)cc12 [1g(2), methyl 2-(1,2-dimethyl-5-methoxy-6-fluoro-1H-indol-3-yl)acetate] | 10 (≈ 37.7 µM) | 6.3 | 
COC(=O)Cc1c(C)n(C)c2cc(F)c(O)cc12 [1v(1), methyl 2-(5-hydroxy-1,2-dimethyl-6-fluoro-1H-indol-3-yl)acetate] |  | 50 | 
